Results: patent US4962112A, “7-(2-methyl-4-aminopyrrolidinyl)naphthryidine and quinoline compounds” (Abbott Laboratories, priority 1988, dated 1990)
In brackets after ≈: the same amount, converted by molar mass.

Legend:
M[…] = assay: In vitro antibacterial activity, agar dilution MIC; format: cell-based; settings: Micrococcus luteus
Procedure: (§1) The in vitro antibacterial activity of the test compound was determined by conventional agar dilution procedures. The organisms were grown overnight in brain-heart infusion (BHI) broth (Difco 0037-01-6) at 36° C. Twofold dilutions of the stock solution ([…]) of the test compound were made in BHI agar obtain a test concentration ranging from […]. The plate was inoculated with approximately 10^4 organisms. It was then incubated at 36° C. for 18 h. the minimal inhibitory concentration was the lowest concentration of the test compound that yielded no visible growth on the plate.

S. aureus = assay: In vitro antibacterial activity, agar dilution MIC; format: cell-based; settings: Staphylococcus aureus, 18 h
Procedure: as §1

E. coli = assay: In vitro antibacterial activity, agar dilution MIC; format: cell-based; settings: Escherichia coli, 18 h
Procedure: as §1

EN[…] = assay: In vitro antibacterial activity, agar dilution MIC; format: cell-based; settings: Enterococcus faecium, ATCC8043, 18 h; EN[…] ATCC 8043
Procedure: as §1

STREPTOCOCCUS BOVIS = assay: In vitro antibacterial activity, agar dilution MIC; format: cell-based; settings: Streptococcus equinus, 18 h; STREPTOCOCCUS BOVIS A5196
S. pyogenes = assay: In vitro antibacterial activity, agar dilution MIC; format: cell-based; settings: Streptococcus pyogenes, 18 h
K. pneumoniae = assay: In vitro antibacterial activity, agar dilution MIC; format: cell-based, Klebsiella pneumoniae; settings: ATCC8045, 18 h; KLEBSIELLA PNEUMONIAE ATCC 8045; read-out: MIC
P. aeruginosa = assay: In vitro antibacterial activity, agar dilution MIC; format: cell-based; settings: Pseudomonas aeruginosa, 18 h
ACINETOBACTER SP = assay: In vitro antibacterial activity, agar dilution MIC; format: cell-based; settings: 18 h; ACINETOBACTER SP CMX 669
S. agalactiae = assay: In vitro antibacterial activity, agar dilution MIC; format: cell-based; settings: Streptococcus agalactiae, 18 h; STR[…] 508 (Table 2)
[1] = Aqueous solubility in Ringer's buffer at pH 7.5 (HPLC); format: physicochemical
Procedure: A known excess weight of the compound was shaken overnight with a known volume of Ringer's buffer (bicarbonate buffer containing sodium, potassium, calcium and magnesium ions, initially adjusted to pH 7.5). The contents were filtered, and the clear filtrate was analyzed after appropriate dilution using HPLC (UV absorbance detection).

[2] = tested on: STAPHYLOCOCCUS EPIDERMIDIS; assay: In vitro antibacterial activity, agar dilution MIC; format: cell-based; settings: 18 h; STAPHYLOCOCCUS EPIDERMIDIS 3519
PROVIDENCIA STUARTII = assay: In vitro antibacterial activity, agar dilution MIC; format: cell-based; settings: 18 h
PSEUDOMONAS CEPACIA = assay: In vitro antibacterial activity, agar dilution MIC; format: cell-based; settings: Burkholderia cepacia, 18 h; PSEUDOMONAS CEPACIA 296I
[3] = Oral pharmacokinetics, blood level by disk agar diffusion bioassay; format: in vivo, Mice; settings: for Blood Level of Compound: mice; for serum concentrations / blood levels (in words): versus analogs A and B at 100 mg/kg
Procedure: Mice were administered the quantity of compound indicated orally, as a single dose. At the specified time intervals, blood was collected from groups of five mice. All samples were assayed by a disk agar diffusion bioassay procedure. Bacillus subtilis 6633 or Klebsiella pneumoniae 10032 were used as the assay organisms, and seek agar medium No. 1 (BBL Microbiology Systems; Cockeysville, MD) was the growth medium. The plates were incubated at 32° C for 18 h and read with an image analyzer (Optomax Inc.).

[4] = ATCC6538P, STAPHYLOCOCCUS AUREUS ATCC 6538P
[5] = STREPTOCOCCUS PYOGENES 930 CONST
[6] = compared with 2-unsubstituted aminopyrrolidine analogs

| Compound | MIC (M[…]; ATCC4698, 18 h, M[…] ATCC 4698) | MIC (M[…]; ATCC9341, 18 h, M[…] ATCC 9341) | MIC (S. aureus; STAPHYLOCOCCUS AUREUS 45) | MIC (S. aureus; STAPHYLOCOCCUS AUREUS 45RAR2) | MIC (S. aureus; STAPHYLOCOCCUS AUREUS A5177) | MIC (S. aureus; STAPHYLOCOCCUS AUREUS CMX 503A) | MIC (S. aureus; STAPHYLOCOCCUS AUREUS CMX 553) | MIC (S. aureus; STAPHYLOCOCCUS AUREUS CMX 6868) | MIC (S. aureus; [4]) | MIC (E. coli; ESCHERICHIA COLI DC-2) | MIC (E. coli; ESCHERICHIA COLI H560) | MIC (E. coli; ESCHERICHIA COLI JUHL) | MIC (E. coli; ESCHERICHIA COLI KNK 437) | MIC (E. coli; ESCHERICHIA COLI SS) | MIC (EN[…]) | MIC (STREPTOCOCCUS BOVIS) | MIC (S. pyogenes; [5]) | MIC (S. pyogenes; STREPTOCOCCUS PYOGENES EE561) | MIC (K. pneumoniae) | MIC (P. aeruginosa; PSEUDOMONAS AERUGINOSA A5007) | other results |
| --- | --- | --- | --- | --- | --- | --- | --- | --- | --- | --- | --- | --- | --- | --- | --- | --- | --- | --- | --- | --- | --- |
| C[C@H]1C[C@H](N)CN1c1cc2c(cc1F)c(=O)c(C(=O)O)cn2-c1ccc(F)cc1F [Example 6] | 0.1 µg/mL (≈ 0.24 µM) | 0.2 µg/mL (≈ 0.479 µM) | 0.1 µg/mL (≈ 0.24 µM) | 0.1 µg/mL (≈ 0.24 µM) | 0.2 µg/mL (≈ 0.479 µM) | 0.1 µg/mL (≈ 0.24 µM) | 0.1 µg/mL (≈ 0.24 µM) | 0.05 µg/mL (≈ 0.12 µM) | 0.02 µg/mL (≈ 0.0479 µM) | 0.2 µg/mL (≈ 0.479 µM) | 0.2 µg/mL (≈ 0.479 µM) | 0.05 µg/mL (≈ 0.12 µM) | 0.2 µg/mL (≈ 0.479 µM) | ≤ 0.002 µg/mL | 0.1 µg/mL (≈ 0.24 µM) | 0.2 µg/mL (≈ 0.479 µM) | 0.2 µg/mL (≈ 0.479 µM) | 0.2 µg/mL (≈ 0.479 µM) | 0.02 µg/mL (≈ 0.0479 µM) | 3.1 µg/mL (≈ 7.43 µM) | MIC (P. aeruginosa; PSEUDOMONAS AERUGINOSA BMH10): 0.78 µg/mL (≈ 1.87 µM); MIC (P. aeruginosa; PSEUDOMONAS AERUGINOSA K799/61): 0.02 µg/mL (≈ 0.0479 µM); MIC (P. aeruginosa; PSEUDOMONAS AERUGINOSA K799/WT): 0.39 µg/mL (≈ 0.934 µM); MIC (ACINETOBACTER SP): 0.1 µg/mL (≈ 0.24 µM); MIC (S. agalactiae): 0.1 µg/mL (≈ 0.24 µM); AQUEOUS SOLUBILITY ([1]; at pH 7.5 in Ringer's buffer): 0.053 mg/mL; solubility properties (in words) [1, 6]: significantly improved aqueous solubility properties; MIC [2]: 0.2 µg/mL (≈ 0.479 µM); MIC (PROVIDENCIA STUARTII): 1.56 µg/mL (≈ 3.74 µM); MIC (PSEUDOMONAS CEPACIA): 12.5 µg/mL (≈ 29.9 µM); oral absorption properties (in words) [3, 6]: greatly improved oral absorption properties; Blood Level of Compound ([3]; oral 25 mg/kg, t = 0.5 h): 3700 ng/mL; Blood Level of Compound ([3]; oral 25 mg/kg, t = 1.0 h): 4300 ng/mL; Blood Level of Compound ([3]; oral 25 mg/kg, t = 2.0 h): 2800 ng/mL; Blood Level of Compound ([3]; oral 25 mg/kg, t = 3.0 h): 1100 ng/mL; Blood Level of Compound ([3]; oral 25 mg/kg, t = 6.0 h): 100 ng/mL; Blood Level of Compound ([3]; oral 25 mg/kg, t = 24.0 h): 0 ng/mL; serum concentrations / blood levels (in words) ([3]; oral 25 mg/kg): still achieve better blood; serum concentrations / blood levels (in words) ([3]; oral 25 mg/kg, listed as Compound 6): higher serum concentrations |
| NC1CCN(c2cc3c(cc2F)c(=O)c(C(=O)O)cn3-c2ccc(F)cc2F)C1 (stereo not shown) [Example B, 7-(3-Amino-pyrrolidin-1-yl)-1-(2,4-difluorophenyl)-1,4-dihydro-6-fluoro--oxo-quinoline-3-carboxylic acid, reference compound] | 0.78 µg/mL (≈ 1.93 µM) | 0.39 µg/mL (≈ 0.967 µM) | 0.1 µg/mL (≈ 0.248 µM) | 0.1 µg/mL (≈ 0.248 µM) | 0.05 µg/mL (≈ 0.124 µM) | 0.05 µg/mL (≈ 0.124 µM) | 0.05 µg/mL (≈ 0.124 µM) | 0.05 µg/mL (≈ 0.124 µM) | 0.02 µg/mL (≈ 0.0496 µM) | 0.2 µg/mL (≈ 0.496 µM) | 0.02 µg/mL (≈ 0.0496 µM) | 0.02 µg/mL (≈ 0.0496 µM) | 0.2 µg/mL (≈ 0.496 µM) | 0.002 µg/mL (≈ 0.00496 µM) | 0.2 µg/mL (≈ 0.496 µM) | 0.39 µg/mL (≈ 0.967 µM) | 0.1 µg/mL (≈ 0.248 µM) | 0.2 µg/mL (≈ 0.496 µM) | 0.01 µg/mL (≈ 0.0248 µM) | 0.2 µg/mL (≈ 0.496 µM) | MIC (P. aeruginosa; PSEUDOMONAS AERUGINOSA BMH10): 0.1 µg/mL (≈ 0.248 µM); MIC (P. aeruginosa; PSEUDOMONAS AERUGINOSA K799/61): 0.05 µg/mL (≈ 0.124 µM); MIC (P. aeruginosa; PSEUDOMONAS AERUGINOSA K799/WT): 0.2 µg/mL (≈ 0.496 µM); MIC (ACINETOBACTER SP): 0.05 µg/mL (≈ 0.124 µM); MIC (S. agalactiae): 0.2 µg/mL (≈ 0.496 µM); solubility ([1]; at pH 7.5 in Ringer's buffer): 8 µg/mL (≈ 19.8 µM); MIC [2]: 0.1 µg/mL (≈ 0.248 µM); MIC (PROVIDENCIA STUARTII): 1.56 µg/mL (≈ 3.87 µM); MIC (PSEUDOMONAS CEPACIA): 6.2 µg/mL (≈ 15.4 µM); Blood Level of Compound ([3]; oral 100 mg/kg, t = 1.0 h): 500 ng/mL; Blood Level of Compound ([3]; oral 100 mg/kg, t = 2.0 h): 700 ng/mL; Blood Level of Compound ([3]; oral 100 mg/kg, t = 3.0 h): 900 ng/mL; Blood Level of Compound ([3]; oral 100 mg/kg, t = 6.0 h): 700 ng/mL; Blood Level of Compound ([3]; oral 100 mg/kg, t = 24.0 h): 0 ng/mL |
